From patent US12415802B1, “Dipyridine benzothiophene derivative compound” (KING FAISAL UNIVERSITY, priority 2025, dated 2025)

Assay: DPPH radical scavenging antioxidant test
Type: biochemical
Conditions: 517 nm; for Inhibition (radical scavenging inhibition): 0.2 mL DPPH (0.75 mM), compound (3p M) in ethanol, 30 minutes in the dark; for antioxidant activity (in words): DPPH in vitro test, vitamin C as positive control
Text: A dipyridine benzo[b]thiophene derivative compound comprises 4-(1-benzothiophen-2-yl)-6-ethoxy-2,3′-bipyridine-5-carbonitrile. […] As described herein, the antioxidant activity of 4-(1-benzothiophen-2-yl)-6-ethoxy-2,3′-bipyridine-5-carbonitrile was investigated by 2,2-diphenyl-1-picrylhydrazyl (DPPH) in vitro tests that employ vitamin C as the positive control.
The antioxidant properties of the 4-(1-benzothiophen-2-yl)-6-ethoxy-2,3′-bipyridine-5-carbonitrile compound were studied by adding 0.2 mL DPPH (0.75 mM)) to 4-(1-benzothiophen-2-yl)-6-ethoxy-2,3′-bipyridine-5-carbonitrile (3p M) (4) in ethanol. After 30 minutes of incubation in the dark, the absorbance was read against a blank at 517 nm. Ascorbic acid (Vitamin C) was used as a standard antioxidant (positive control). A blank sample was prepared by 0.2 mL of DPPH in 3 mL ethanol. A negative control sample was run using ethanol instead of the sample. The radical scavenging inhibition was calculated using the following equation: […]
The antioxidant activity for the synthesized compound is listed in Table 1, using Vitamin C as a reference.

Compound	Inhibition (radical scavenging inhibition) [%]	antioxidant activity (in words)	antioxidant activity (in words) (listed as III)
CCOc1nc(-c2cccnc2)cc(-c2cc3ccccc3s2)c1C#N [Product 4, 4-(1-benzothiophen-2-yl)-6-ethoxy-2,3′-bipyridine-5-carbonitrile]	48	high antioxidant activities	high potential as an antioxidant compared to vitamin C
O=C1O[C@H]([C@@H](O)CO)C(O)=C1O [Vit C, Ascorbic acid, reference compound]	74		
